Consider 28 compounds from patent US10047086B2, “Imidazopyridines and imidazopyrazines as LSD1 inhibitors” (Incyte Corporation, priority 2014, dated 2018).

Usually IC50 stands for the midpoint of a concentration-inhibition curve. The low end stands for greater potency, the high end for weaker potency.

The assay has as its target LSD-1 enzyme (Homo sapiens (Human), UniProt O60341). The experiment in a line: LANCE LSD1/KDM1A demethylase assay (LSD1 histone demethylase biochemical assay). The conditions noted are these: 1 nM LSD-1 enzyme, 1 hour preincubation at 25° C., 0.4 μM Biotin-labeled Histone H3 peptide substrate. How it is done:
LSD1 Histone Demethylase Biochemical Assay
LANCE LSD1/KDM1A demethylase assay-10 μL of 1 nM LSD-1 enzyme (ENZO BML-SE544-0050) in the assay buffer (50 mM Tris, pH 7.5, 0.01% Tween-20, 25 mM NaCl, 5 mM DTT) were preincubated for 1 hour at 25° C. with 0.8 μL compound/DMSO dotted in black 384 well polystyrene plates. […] Reactions were stopped by addition of 10 μL 1× LANCE Detection Buffer (PerkinElmer CR97-100) supplemented with 1.5 nM Eu-anti-unmodified H3K4 Antibody (PerkinElmer TRF0404), and 225 nM LANCE Ultra Streptavidin (PerkinElmer TRF102) along with 0.9 mM Tranylcypromine-HCl (Millipore 616431). After stopping the reactions plates were incubated for 30 minutes and read on a PHERAstar FS plate reader (BMG Labtech).
(Time-resolved FRET reads energy transfer from a long-lived donor to a nearby acceptor.)
Take `CN1CCC[C@@H](COc2cc(-c3ccc(C#N)cc3)c(-c3ccc4c(c3)CC(=O)N4C)n3cncc23)C1` [Example 64, (R)-4-(5-(1-methyl-2-oxoindolin-5-yl)-8-((1-methylpiperidin-3-yl)methoxy)imidazo[1,5-a]pyridin-6-yl)benzonitrile]: the IC50 is ≤ 50 nM.

For the compound `CN1CCC[C@@H](COc2cc(-c3ccc(C#N)cc3)c(-c3ccc4c(c3)OCC(=O)N4C)n3cncc23)C1` [Example 65, (R)-4-(5-(4-methyl-3-oxo-3,4-dihydro-2H-benzo[b][1,4]oxazin-7-yl)-8-((1-methylpiperidin-3-yl)methoxy)imidazo[1,5-a]pyridin-6-yl)benzonitrile], the IC50 was ≤ 50 nM. As to `CCN1CCC[C@@H](COc2cc(-c3ccc(C#N)cc3)c(-c3cnc4c(c3)OCCO4)n3cncc23)C1` [Example 67, (R)-4-(5-(2,3-dihydro-[1,4]dioxino[2,3-b]pyridin-7-yl)-8-((1-ethylpiperidin-3-yl)methoxy)imidazo[1,5-a]pyridin-6-yl)benzonitrile], the IC50 was ≤ 50 nM. The same measure for `COc1ncc(-c2c(-c3ccc(C#N)cc3)cc(OC[C@@H]3CCCN(C)C3)c3cncn23)cc1F` [Example 70, (R)-4-(5-(5-fluoro-6-methoxypyridin-3-yl)-8-((1-methylpiperidin-3-yl)methoxy)imidazo[1,5-a]pyridin-6-yl)benzonitrile]: ≤ 50 nM; for `CN1CCC[C@@H](COc2cc(-c3ccc(C#N)cc3)c(-c3ccc(N4CCCC4=O)nc3)n3cncc23)C1` [Example 71, (R)-4-(8-((1-methylpiperidin-3-yl)methoxy)-5-(6-(2-oxopyrrolidin-1-yl)pyridin-3-yl)imidazo[1,5-a]pyridin-6-yl)benzonitrile]: ≤ 50 nM.

In the case of `COc1ccc(-c2c(-c3ccc(C#N)cc3)cc(OC[C@@H]3CCCN(C)C3)c3cncn23)cn1` [Example 72, 4-(5-(6-methoxypyridin-3-yl)-8-{[(3R)-1-methylpiperidin-3-yl]methoxy}imidazo[1,5-a]pyridin-6-yl)benzonitrile], the IC50 is ≤ 50 nM. For `CN1CCC[C@@H](COc2cc(-c3ccc(C#N)cc3)c(-c3cc(F)c(CO)c(F)c3)n3cncc23)C1` [Example 73, (R)-4-(5-(3,5-difluoro-4-(hydroxymethyl)phenyl)-8-((1-methylpiperidin-3-yl)methoxy)imidazo[1,5-a]pyridin-6-yl)benzonitrile], the IC50 is ≤ 50 nM. On to `Cc1cc(-c2c(-c3ccc(C#N)cc3)cc(OC[C@@H]3CCCN(C)C3)c3cncn23)cc(F)c1CO` [Example 75, 4-(5-[3-fluoro-4-(hydroxymethyl)-5-methylphenyl]-8-{[(3R)-1-methylpiperidin-3-yl]methoxy}imidazo[1,5-a]pyridin-6-yl)benzonitrile], for which the concentration for half-maximal inhibition (IC50) was ≤ 50 nM. Regarding `Cc1ncc(-c2c(-c3ccc(C#N)cc3)cc(OC[C@@H]3CCCN(C)C3)c3cncn23)cc1O` [Example 76, 4-(5-(5-hydroxy-6-methylpyridin-3-yl)-8-{[(3R)-1-methylpiperidin-3-yl]methoxy}imidazo[1,5-a]pyridin-6-yl)benzonitrile], the IC50 was ≤ 50 nM. The value for `CN1CCC[C@@H](COc2cc(-c3ccc(C#N)cc3)c(-c3ccc(C(C)(C)O)cc3)n3cncc23)C1` [Example 77, 4-(5-[4-(1-hydroxy-1-methylethyl)phenyl]-8-{[(3R)-1-methylpiperidin-3-yl]methoxy}imidazo[1,5-a]pyridin-6-yl)benzonitrile] was ≤ 50 nM; that for `CN1CCC[C@@H](COc2cc(-c3ccc(C#N)cc3)c(-c3cnc(N4CCOCC4)c(F)c3)n3cncc23)C1` [Example 78, 4-(5-(5-fluoro-6-morpholin-4-ylpyridin-3-yl)-8-{[(3R)-1-methylpiperidin-3-yl]methoxy}imidazo[1,5-a]pyridin-6-yl)benzonitrile] was ≤ 50 nM; that for `Cc1cc(-c2c(-c3ccc(C#N)cc3)cc(OC[C@@H]3CCCN(C)C3)c3cncn23)ccc1CO` [Example 79, 4-(5-[4-(hydroxymethyl)-3-methylphenyl]-8-{[(3R)-1-methylpiperidin-3-yl]methoxy}imidazo[1,5-a]pyridin-6-yl)benzonitrile] was ≤ 50 nM. As to `CN1CCC[C@@H](COc2cc(-c3ccc(C#N)cc3)c(-c3ccc(N(C)C)nc3)n3cncc23)C1` [Example 80, 4-(5-[6-(dimethylamino)pyridin-3-yl]-8-{[(3R)-1-methylpiperidin-3-yl]methoxy}imidazo[1,5-a]pyridin-6-yl)benzonitrile], the IC50 is ≤ 50 nM.

Regarding `Cc1cc(-c2c(-c3ccc(C#N)cc3)cc(OC[C@@H]3CCCN(C)C3)c3cncn23)cnc1C` [Example 81, 4-(5-(5,6-dimethylpyridin-3-yl)-8-{[(3R)-1-methylpiperidin-3-yl]methoxy}imidazo[1,5-a]pyridin-6-yl)benzonitrile], the IC50 is ≤ 50 nM. The same measure for `CN1CCC[C@@H](COc2cc(-c3ccc(C#N)cc3)c(-c3ccc(CN(C)C(=O)N(C)C)c(F)c3)n3cncc23)C1` [Example 82, N-[4-(6-(4-cyanophenyl)-8-{[(3R)-1-methylpiperidin-3-yl]methoxy}imidazo[1,5-a]pyridin-5-yl)-2-fluorobenzyl]-N,N′,N′-trimethylurea]: ≤ 50 nM. The value for `CN(C)C1CCN(c2nc(-c3ccc(C#N)cc3)c(-c3ccc4c(c3)ncn4C)n3cncc23)CC1` [Example 83, 4-[8-[4-(dimethylamino)piperidin-1-yl]-5-(1-methyl-1H-benzimidazol-5-yl)imidazo[1,5-a]pyrazin-6-yl]benzonitrile] was ≤ 50 nM; that for `CN(C)C1CCN(c2nc(-c3ccc(C#N)cc3)c(-c3cnc4c(ccn4C)c3)n3cncc23)CC1` [Example 84, 4-(8-(4-(dimethylamino)piperidin-1-yl)-5-(1-methyl-1H-pyrrolo[2,3-b]pyridin-5-yl)imidazo[1,5-a]pyrazin-6-yl)benzonitrile] was ≤ 50 nM; that for `CN1CCC[C@@H](COc2nc(-c3ccc(C#N)cc3)c(-c3cnc4c(ccn4C)c3)n3cncc23)C1` [Example 85, 4-[8-{[(3R)-1-methylpiperidin-3-yl]methoxy}-5-(1-methyl-1H-pyrrolo[2,3-b]pyridin-5-yl)imidazo[1,5-a]pyrazin-6-yl]benzonitrile] was ≤ 50 nM. Take `Cc1cc(-c2c(-c3ccc(C#N)cc3)nc(OC[C@@H]3CCCN(C)C3)c3cncn23)cnc1C` [Example 86, 4-(5-(5,6-dimethylpyridin-3-yl)-8-{[(3R)-1-methylpiperidin-3-yl]methoxy}imidazo[1,5-a]pyrazin-6-yl)benzonitrile]: the IC50 was ≤ 50 nM. For `COC(=O)N(C)c1ccc(-c2c(-c3ccc(C#N)cc3)nc(OC[C@@H]3CCCN(C)C3)c3cncn23)cc1F` [Example 87, (R)-methyl (4-(6-(4-cyanophenyl)-8-((1-methylpiperidin-3-yl)methoxy)imidazo[1,5-a]pyrazin-5-yl)-2-fluorophenyl)(methyl)carbamate], the IC50 is ≤ 50 nM. The same measure for `Cc1cc(-c2c(-c3ccc(C#N)cc3)nc(N3CCC(N(C)C)CC3)c3cncn23)cnc1C` [Example 89, 4-[8-[4-(dimethylamino)piperidin-1-yl]-5-(5,6-dimethylpyridin-3-yl)imidazo[1,5-a]pyrazin-6-yl]benzonitrile]: ≤ 50 nM; for `COc1ncc(-c2c(-c3ccc(C#N)cc3)nc(N3CCC(N(C)C)CC3)c3cncn23)cc1F` [Example 90, 4-[8-[4-(dimethylamino)piperidin-1-yl]-5-(5-fluoro-6-methoxypyridin-3-yl)imidazo[1,5-a]pyrazin-6-yl]benzonitrile]: ≤ 50 nM; for `Cc1ccc(-c2c(-c3ccc(C#N)cc3)nc(N3CCC(N(C)C)CC3)c3cncn23)cc1CO` [Example 91, 4-{8-[4-(dimethylamino)piperidin-1-yl]-5-[3-(hydroxymethyl)-4-methylphenyl]imidazo[1,5-a]pyrazin-6-yl}benzonitrile]: ≤ 50 nM.

Turning to `Cc1ccc(-c2c(-c3ccc(C#N)cc3)nc(N3CCC(N(C)C)CC3)c3cncn23)c(CO)c1` [Example 92, 4-{8-[4-(dimethylamino)piperidin-1-yl]-5-[2-(hydroxymethyl)-4-methylphenyl]imidazo[1,5-a]pyrazin-6-yl}benzonitrile], the concentration for half-maximal inhibition (IC50) is ≤ 50 nM. The same measure for `COc1ncc(-c2c(-c3ccc(C#N)cc3)nc(N3CCC(N(C)C)CC3)c3cncn23)cc1C` [Example 93, 4-[8-[4-(dimethylamino)piperidin-1-yl]-5-(6-methoxy-5-methylpyridin-3-yl)imidazo[1,5-a]pyrazin-6-yl]benzonitrile]: ≤ 50 nM; for `COC(=O)N(C)c1ccc(-c2c(-c3ccc(C#N)cc3)nc(N3CCC(N(C)C)CC3)c3cncn23)cc1` [Example 95, methyl (4-(6-(4-cyanophenyl)-8-(4-(dimethylamino)piperidin-1-yl)imidazo[1,5-a]pyrazin-5-yl)phenyl)(methyl)carbamate]: ≤ 50 nM. As to `Cc1ncc(-c2c(-c3ccc(C#N)cc3)nc(N3CCC(N(C)C)CC3)c3cncn23)cc1F` [Example 97, 4-[8-[4-(dimethylamino)piperidin-1-yl]-5-(5-fluoro-6-methylpyridin-3-yl)imidazo[1,5-a]pyrazin-6-yl]benzonitrile], the half-maximal inhibitory concentration (IC50) is ≤ 50 nM.

Consider `CN(C)C1CCN(c2nc(-c3ccc(C#N)cc3)c(-c3ccc(OC(F)F)nc3)n3cncc23)CC1` [Example 98, 4-{5-[6-(difluoromethoxy)pyridin-3-yl]-8-[4-(dimethylamino)piperidin-1-yl]imidazo[1,5-a]pyrazin-6-yl}benzonitrile], for which the IC50 is ≤ 50 nM.
